Measurements as given in patent US9814709B2, “Bruton's tyrosine kinase inhibitor” (HEFEI INSTITUTES OF PHYSICAL SCIENCE, CHINESE ACADEMY OF …, priority 2014, dated 2017).

Tests used:
BTK C481S protein = target: T1, BTK C481S protein (Homo sapiens, UniProt Q06187, C481S); assay: Btk acellular kinase assay, BTK C481S mutant protein purified from transfected 293T cells; assay type: biochemical; conditions: 3-1000 nM, 100 μM ATP
T1 construct: made in house; host or cells: 293T cells
Method: The BTK wild-type plasmid and the BTK mutant plasmid (C481S) were respectively transfected into 293T cells (purchased from ATCC), and the resultant cells were marked as BTK WT 293T cells and BTK C481S 293T cells, respectively. After cell culture for 2 days, the cells were harvested and purified to give BTK WT and BTK C481S proteins. The compounds of formula (I) were added to the BTK WT and BTK C481S proteins at different concentrations of 3 nM, 10 nM, 30 nM, 100 nM, 300 nM and 1000 nM, respectively, and reacted at room temperature for 30 min, followed by the addition of 100 μM ATP at 37° C. and reacting for 20 min.

BTK = BTK (Homo sapiens, UniProt Q06187); assay: In vitro enzymatic activity (ADP-Glo); assay type: biochemical; design: purchased Progema (US) [sic; Promega]; conditions: 4 hrs preincubation, 10 μM ATP
BTK, sequence (Q06187 whole entry): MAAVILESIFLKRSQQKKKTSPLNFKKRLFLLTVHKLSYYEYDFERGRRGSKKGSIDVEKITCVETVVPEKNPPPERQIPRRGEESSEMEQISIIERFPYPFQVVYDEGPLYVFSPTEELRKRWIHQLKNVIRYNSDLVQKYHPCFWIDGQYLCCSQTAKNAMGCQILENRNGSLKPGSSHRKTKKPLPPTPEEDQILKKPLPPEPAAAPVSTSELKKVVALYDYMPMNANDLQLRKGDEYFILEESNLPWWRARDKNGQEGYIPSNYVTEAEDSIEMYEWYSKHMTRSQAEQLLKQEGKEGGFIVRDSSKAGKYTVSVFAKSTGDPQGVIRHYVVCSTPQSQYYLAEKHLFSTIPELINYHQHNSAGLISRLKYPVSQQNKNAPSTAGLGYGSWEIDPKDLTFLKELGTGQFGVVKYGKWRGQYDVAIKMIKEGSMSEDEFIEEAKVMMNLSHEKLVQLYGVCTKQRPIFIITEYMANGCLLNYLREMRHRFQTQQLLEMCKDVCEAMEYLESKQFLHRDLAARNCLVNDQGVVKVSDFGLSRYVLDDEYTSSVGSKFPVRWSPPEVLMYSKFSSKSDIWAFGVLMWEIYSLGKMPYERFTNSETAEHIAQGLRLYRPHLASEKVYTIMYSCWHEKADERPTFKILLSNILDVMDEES
Method: In the experimental assay of in vitro enzymatic activity, the IC50 values of Compound 1 and Compound 19 on different kinases including BTK, EGFR (WT), EGFR/T790M, EGFR L858R/T790M, JAK1, JAK2, and JAK3 were determined. The intracellular segment (699-1068) region of EGFR was cloned into the insect expression vector pAcG2T, and was protein expressed by using an insect expression system, BaculoGold™ Baculovirus Expression System (BD Pharmingen), with GST tag. The mutations of T790M and L858R sites were performed simultaneously to give T790M single mutant vector and T790M/L858R double mutant vector of EGFR, respectively. The established vectors were transfected into SF9 packaging viruses, so as to infect the SF9-expressed proteins with the viruses; JAK1 and JAK2 were purchased from Life Technologies (US) and Abcam (US), respectively; JAK3 and BTK were purchased from Progema (US). […]
(§1) 10 μL of kinase detection reagent was added to transfer ADP into ATP, and the newly obtained ATP was detected by using coupled luciferase/fluorescein reaction, then the IC50 values were calculated by using a plotting method based on the Envision reading.

[1] = tested on: PLCγ2Y1217 phosphorylation; assay: Phosphorylation of PLCγ2 Y1217 in anti-IgM stimulated Ramos cells; assay type: cell-based; conditions: Homo sapiens, 4 hrs treatment, anti-IgM 10 min, read-out: EC50, inhibition of phosphorylation of PLCγ2Y1217
Method: (§2) We further characterized the properties of the compounds by assaying a number of cellular biochemical and functional endpoints. In particular, we assessed the selectivity of Compound 1 for inhibition of Btk versus the closely related protein kinases S6K, AKT, ErK, JAK3, and STAT5. Ramos cells (human B cells, purchased from ATCC) were treated with different concentrations of 10 nM, 100 nM, 1000 nM of the compounds of formula (I) for 4 hrs, followed by stimulation with anti-IgM for 10 min, and then the samples were harvested. We determined the effect of compounds on phosphorylation of BTKY223, PLCγ1Y783, PLCγ2Y759, PLCγ2Y1217, AKTT308, Erk1/2T202/204, JAK3 T980/981, STAT5 T694, mTORC1T389, MNK2 (FIG. 1).

tyrosine Y223 on Btk = target: T2, tyrosine Y223 on Btk (Homo sapiens, UniProt Q06187); assay: Phosphorylation of BTK Y223 in anti-IgM stimulated Ramos cells; assay type: cell-based; conditions: 4 hrs treatment, anti-IgM 10 min, read-out: EC50, inhibition of phosphorylation of tyrosine Y223 on Btk
T2 construct: host or cells: Ramos cells
T2 sequence (Q06187 whole entry): as above
Method: as §2

EGFR (WT) = target: T3, EGFR (WT) (Homo sapiens, UniProt P00533); assay: In vitro enzymatic activity (ADP-Glo); assay type: biochemical; conditions: 4 hrs preincubation, 10 μM ATP
T3 construct: The intracellular segment (699-1068) region of EGFR was cloned into the insect expression vector pAcG2T; GST; made in house; host or cells: SF9 insect cells (baculovirus)
T3 sequence (P00533 699-1068): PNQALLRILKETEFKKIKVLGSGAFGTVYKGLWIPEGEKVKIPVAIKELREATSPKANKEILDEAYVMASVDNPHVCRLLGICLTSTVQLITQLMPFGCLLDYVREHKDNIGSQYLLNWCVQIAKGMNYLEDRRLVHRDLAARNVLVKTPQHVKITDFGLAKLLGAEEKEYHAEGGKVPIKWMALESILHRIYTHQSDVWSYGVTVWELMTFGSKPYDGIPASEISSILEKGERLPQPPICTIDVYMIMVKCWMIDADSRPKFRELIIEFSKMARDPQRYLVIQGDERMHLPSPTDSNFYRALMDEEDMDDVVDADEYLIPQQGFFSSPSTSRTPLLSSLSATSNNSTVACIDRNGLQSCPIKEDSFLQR
Method: (§3) In the experimental assay of in vitro enzymatic activity, the IC50 values of Compound 1 and Compound 19 on different kinases including BTK, EGFR (WT), EGFR/T790M, EGFR L858R/T790M, JAK1, JAK2, and JAK3 were determined. The intracellular segment (699-1068) region of EGFR was cloned into the insect expression vector pAcG2T, and was protein expressed by using an insect expression system, BaculoGold™ Baculovirus Expression System (BD Pharmingen), with GST tag. The mutations of T790M and L858R sites were performed simultaneously to give T790M single mutant vector and T790M/L858R double mutant vector of EGFR, respectively. The established vectors were transfected into SF9 packaging viruses, so as to infect the SF9-expressed proteins with the viruses; JAK1 and JAK2 were purchased from Life Technologies (US) and Abcam (US), respectively; JAK3 and BTK were purchased from Progema (US).
(§4) BTK protein kinase 9 μL (concentration of 1.5 ng/μL), JAK1, JAK2, JAK3 protein kinases 9 μL (concentration of 3 ng/μL, 3 ng/μL, 1.5 ng/μL), purified EGFR (WT), EGFR (T790M), EGFR (T790M/L858R) protein kinases 9 μL (all with concentration of 6 ng/μL) were respectively used, and each was reacted with three-fold gradient dilution of pharmaceutical Compound 1 and Compound 19 (final concentrations of the agents were 10 μM, 3 μM, 1 μM, 0.3 μM, 0.1 μM, 0.03 μM, 0.01 μM, 0.003 μM), respectively, at room temperature for 4 hrs;
(§5) 2 μL of ATP and 3 μL of substrate, Poly(4:1 Glu, Tyr)Peptide (Promega, US), were added (final concentrations are 10 μM and 0.2 μg/μL, respectively), and reacted at 37° C. for 1 hr;
(§6) 5 μL of reacted kinase solution was added into 5 μL of ADP-Glo™ (Promega, US) and reacted at room temperature for 40 min, the kinase reaction was stopped and the remained ATP was consumed;
as §1

JAK3 = target: T4, JAK3 (Homo sapiens, UniProt P52333); assay: In vitro enzymatic activity (ADP-Glo); assay type: biochemical; conditions: 4 hrs preincubation, 10 μM ATP
T4 construct: purchased Progema (US) [sic; Promega]
T4 sequence (P52333 whole entry): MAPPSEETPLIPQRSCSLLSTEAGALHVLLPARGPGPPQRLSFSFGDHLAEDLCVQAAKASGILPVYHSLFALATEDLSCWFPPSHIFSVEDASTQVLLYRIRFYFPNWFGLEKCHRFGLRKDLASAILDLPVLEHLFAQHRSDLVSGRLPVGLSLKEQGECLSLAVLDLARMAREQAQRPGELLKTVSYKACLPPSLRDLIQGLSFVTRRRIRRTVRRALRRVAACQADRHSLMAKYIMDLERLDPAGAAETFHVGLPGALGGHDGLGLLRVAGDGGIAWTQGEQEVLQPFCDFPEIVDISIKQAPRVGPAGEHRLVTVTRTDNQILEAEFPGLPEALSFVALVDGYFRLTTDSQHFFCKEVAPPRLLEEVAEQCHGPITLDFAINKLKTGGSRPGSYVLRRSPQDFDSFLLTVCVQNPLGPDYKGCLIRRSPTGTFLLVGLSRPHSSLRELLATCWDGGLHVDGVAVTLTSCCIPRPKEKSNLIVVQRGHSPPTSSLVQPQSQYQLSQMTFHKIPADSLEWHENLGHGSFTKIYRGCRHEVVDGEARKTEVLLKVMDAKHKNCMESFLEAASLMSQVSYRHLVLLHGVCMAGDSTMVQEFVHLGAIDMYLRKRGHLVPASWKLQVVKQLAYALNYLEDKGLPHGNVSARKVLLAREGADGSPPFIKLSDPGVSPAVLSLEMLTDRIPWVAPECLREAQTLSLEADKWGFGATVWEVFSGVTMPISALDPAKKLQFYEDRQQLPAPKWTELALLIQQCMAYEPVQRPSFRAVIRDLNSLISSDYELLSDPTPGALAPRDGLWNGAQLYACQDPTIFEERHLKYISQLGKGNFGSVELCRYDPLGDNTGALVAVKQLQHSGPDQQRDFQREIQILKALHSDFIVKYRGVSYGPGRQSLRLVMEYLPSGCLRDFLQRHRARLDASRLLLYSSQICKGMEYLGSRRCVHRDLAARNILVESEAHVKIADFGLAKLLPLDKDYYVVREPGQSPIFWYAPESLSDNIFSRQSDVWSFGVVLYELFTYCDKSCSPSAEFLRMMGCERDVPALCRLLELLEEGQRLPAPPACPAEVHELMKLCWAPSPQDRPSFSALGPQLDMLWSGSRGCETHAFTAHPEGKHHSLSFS
Method: as §3, §4, §5, §6, §1

EGFR (T790M) = target: T5, EGFR (T790M) (Homo sapiens, UniProt P00533, T790M); assay: In vitro enzymatic activity (ADP-Glo); assay type: biochemical; conditions: 4 hrs preincubation, 10 μM ATP
T5 construct: The intracellular segment (699-1068) region of EGFR was cloned into the insect expression vector pAcG2T; GST; made in house; host or cells: SF9 insect cells (baculovirus)
T5 sequence (P00533 699-1068 T790M): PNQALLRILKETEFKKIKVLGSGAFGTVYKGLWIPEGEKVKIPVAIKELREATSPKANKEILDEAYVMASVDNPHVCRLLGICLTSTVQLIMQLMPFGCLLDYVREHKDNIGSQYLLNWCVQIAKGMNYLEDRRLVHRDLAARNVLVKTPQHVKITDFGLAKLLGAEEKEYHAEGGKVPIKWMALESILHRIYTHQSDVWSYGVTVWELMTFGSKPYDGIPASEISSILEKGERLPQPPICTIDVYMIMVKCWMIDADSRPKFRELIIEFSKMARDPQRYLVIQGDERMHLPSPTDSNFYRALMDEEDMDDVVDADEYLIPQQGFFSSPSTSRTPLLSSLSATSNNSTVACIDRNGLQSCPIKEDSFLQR
Method: as §3, §4, §5, §6, §1

EGFR (T790M/L858R) = target: T6, EGFR (T790M/L858R) (Homo sapiens, UniProt P00533, L858R/T790M); assay: In vitro enzymatic activity (ADP-Glo); assay type: biochemical; conditions: 4 hrs preincubation, 10 μM ATP
T6 construct: The intracellular segment (699-1068) region of EGFR was cloned into the insect expression vector pAcG2T; GST; made in house; host or cells: SF9 insect cells (baculovirus)
T6 sequence (P00533 699-1068 T790M/L858R): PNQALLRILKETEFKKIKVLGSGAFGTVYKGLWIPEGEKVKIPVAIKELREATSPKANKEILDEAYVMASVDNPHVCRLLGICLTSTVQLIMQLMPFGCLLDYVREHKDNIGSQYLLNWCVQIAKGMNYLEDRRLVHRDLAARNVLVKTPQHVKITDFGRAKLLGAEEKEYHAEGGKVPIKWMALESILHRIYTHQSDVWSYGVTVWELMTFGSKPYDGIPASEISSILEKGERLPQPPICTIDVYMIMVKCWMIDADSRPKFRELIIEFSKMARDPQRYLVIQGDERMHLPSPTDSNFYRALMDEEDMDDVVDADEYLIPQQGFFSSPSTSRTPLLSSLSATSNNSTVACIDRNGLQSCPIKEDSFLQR
Method: as §3, §4, §5, §6, §1

T1 sequence (Q06187 whole entry C481S): as the sequence (Q06187 whole entry) above, with C481S counted along it

Row | inhibitory effect on BTK C481S (BTK C481S protein) | IC50 (BTK) | EC50 [1] | EC50 (tyrosine Y223 on Btk) | IC50 (EGFR (WT)) | IC50 (JAK3) | IC50 (EGFR (T790M)) | IC50 (EGFR (T790M/L858R)) | SMILES
1 | no inhibitory effect | – | – | – | – | – | – | – | CCC(=O)Nc1cc(-n2c(=O)ccc3cnc4ccc(-n5cccn5)cc4c32)ccc1C [Compound 19, N-(2-methyl-5-(2-oxo-9-(1H-pyrazol-1-yl)benzo[H][1,6]naphthyridin-1(2H)-yl)phenyl) propionamide]
2 | no inhibition | 75.6 nM | 360 nM | 217 nM | 2450 nM | 169 nM | 5500 nM | 1340 nM | C=CC(=O)Nc1cc(-n2c(=O)ccc3cnc4ccc(-n5cccn5)cc4c32)ccc1C [Compound 1, N-(2-methyl-5-(2-oxo-9-(1H-pyrazol-1-yl)benzo[H][1,6]naphthyridin-1(2H)-yl)phenyl)acrylamide]
